Laboratory results from patent US11890287B2, “Therapeutic compounds and compositions for treating social disorders and substance use disorders” (Kinoxis Therapeutics Pty Ltd, priority 2015, dated 2024).

Columns and labels:
Wistar rats = assay: Biotelemetry of body temperature and heart rate; format: in vivo, rat; settings: SR49059 10 mg/kg before SOC-1
Protocol: FIG. 7—The monitored body temperatures of Wistar rats administered vehicle, SOC-1 (5 mg/kg), or SOC-1 and the V1A receptor antagonist SR49059 (10 mg/kg).
FIG. 8—The monitored heart rates for Wistar rats administered vehicle, SOC-1 (5 mg/kg), or SOC-1 and the V1A receptor antagonist SR49059 (10 mg/kg).
However, the rats were not ataxic or comatose, they were simply in a relaxed quiescent state. […] Effects on body temperature and other behaviours are not blocked by pre-treatment with the vasopressin V1A receptor antagonist SR49059 (10 mg/kg). […] The data in these two studies was gathered with DataSciences International biotelemetry system.

male Sprague Dawley rats = assay: Methamphetamine-primed reinstatement; format: in vivo, rat; settings: C25 10 mg/kg IP or SR49059 1 mg/kg IP before SOC-1 10 mg/kg
[1] = tested on: Fos-positive cells in brain regions of interest; assay: Fos immunohistochemistry in rat brain; format: in vivo, male Wistar rats; settings: OT 1 mg/kg, SOC-1 5 mg/kg
Protocol: Fos immunohistochemistry was used to identify the neural “signature” of SOC-1 (5 mg/kg) in rat brain relative to injections of peripheral oxytocin (OT) (1 mg/kg). SOC-1 produces a similar overall pattern of neural activation and behavioural effects as OT. However, the effects are much larger and additional areas are activated by SOC-1 that are implicated in the regulation of social behaviour (e.g. lateral septum, medial preoptic area and supraoptic nucleus). SOC-1 produces powerful activation of OT-containing neurons in both the supraoptic (FIG. 6: (A)=vehicle; (B)=oxytocin; and (C)=SOC-1) and paraventricular nucleus of the hypothalamus.

HEK-293 cells = assay: Cell viability (Cell Titer Blue); format: cell-based; settings: 48 hours; for Viability: mean ± SD
Protocol: (§1) No apparent cytotoxicity of SOC-1 has been seen in vitro or toxicity in vivo. In a test, SH-SY5Y neuroblastoma cells and HEK-293 cells (4×10^4 cells per well) were exposed to OT or SOC-1 (0.01-10 μM) for 48 hours, with daily media changes. Viability of cells was assessed after a 4 hour exposure to Cell Titer Blue (Promega).

[2] = tested on: SH-SY5Y neuroblastoma cells; assay: Cell viability (Cell Titer Blue); format: cell-based; settings: 48 hours; for Viability: mean ± SD
Protocol: as §1

COc1ccc(S(=O)(=O)N2c3ccc(Cl)cc3[C@](O)(c3ccccc3Cl)[C@@H]2C(=O)N2CCC[C@H]2C(N)=O)cc1OC [SR49059, reference compound]
block of SOC-1 effects on body temperature and other behaviours by pre-treatment (Wistar rats): not blocked | block of the attenuating effect of SOC-1 on methamphetamine-primed reinstatement (male Sprague Dawley rats): failed to block the attenuating effect of SOC-1

COc1ccc2c(c1)NCc1cnn(C)c1N2 [FB-SOC-6, 7-Methoxy-1-methyl-1,4,5,10-tetrahydrobenzo[b]pyrazolo[3,4-e][1,4]diazapine]
melting point: 126 to 128 °C

COCc1nnc(N2CC(Oc3ccc(F)cc3Cl)C2)n1-c1ccc(OC)nc1 [C25, 5-(3-(3-(2-chloro-4-fluorophenoxy)azetidin-1-yl)-5-(methoxymethyl)-4H-1,2,4-triazol-4-yl)-2-methoxypyridine, reference compound]
block of the attenuating effect of SOC-1 on methamphetamine-primed reinstatement (male Sprague Dawley rats): failed to block the attenuating effect of SOC-1

Cc1cccc2c1Nc1c(cnn1C)CN2 [FB-SOC-5, 1,9-Dimethyl-1,4,5,10-tetrahydrobenzo[b]pyrazolo[3,4-e][1,4]diazepine]
melting point: 137 to 139 °C

Cn1ncc2c1Nc1ccc(F)cc1NC2 [FB-SOC-2, 7-Fluoro-1-methyl-1,4,5,10-tetrahydrobenzo[b]pyrazolo[3,4-e][1,4]diazapine]
melting point: 181 to 183 °C

Cc1ccc2c(c1)NCc1cnn(C)c1N2 [FB-SOC-4, 1,7-Dimethyl-1,4,5,10-tetrahydrobenzo[b]pyrazolo[3,4-e][1,4]diazapine]
melting point: 172 to 173 °C

CC[C@H](C)[C@@H]1NC(=O)[C@H](Cc2ccc(O)cc2)NC(=O)[C@@H](N)CSSC[C@@H](C(=O)N2CCC[C@H]2C(=O)N[C@@H](CC(C)C)C(=O)NCC(N)=O)NC(=O)[C@H](CC(N)=O)NC(=O)[C@H](CCC(N)=O)NC1=O [Oxytocin, oxytocin, reference compound]
Mean number of Fos-positive cells, BNST (dorsolateral division) [1]: 11.33 | Mean number of Fos-positive cells, BNST (middle anterior part)) [1]: 5.83 | Mean number of Fos-positive cells, Central nucleus of the amygdala [1]: 25.14 | Mean number of Fos-positive cells, Lateral Parabrachial nucleus [1]: 19.14 | Mean number of Fos-positive cells, Lateral septum (ventral) [1]: 9.17 | Mean number of Fos-positive cells, Locus Ceruleus [1]: 4.14 | Mean number of Fos-positive cells, Medial preoptic area [1]: 3.8 | Mean number of Fos-positive cells, Median preoptic nucleus [1]: 7.17 | Mean number of Fos-positive cells, Nucleus of Solitary Tract [1]: 31.68 | Mean number of Fos-positive cells, PAG (ventrolateral) [1]: 6.57 | Mean number of Fos-positive cells, Paraventircular nucleus [1]: 55.57 | Mean number of Fos-positive cells, Supraoptic nucleus [1]: 4.57 | Mean percent of OT cells that were Fos positive, Paraventircular nucleus [1]: 22.07% | Mean percent of OT cells that were Fos positive, Supraoptic nucleus [1]: 13.5% | Viability (HEK-293 cells; 0.01 μM): 97.8 ± 6.6 percentage of vehicle viability | Viability (HEK-293 cells; 0.1 μM): 100.0 ± 3.2 percentage of vehicle viability | Viability (HEK-293 cells; 1 μM): 101.5 ± 3.7 percentage of vehicle viability | Viability (HEK-293 cells; 10 μM): 104.3 ± 2.6 percentage of vehicle viability | differences in viability (HEK-293 cells; 0.01-10 μM): No significant differences in viability | Viability ([2]; 0.01 μM): 100.4 ± 2.4 percentage of vehicle viability | Viability ([2]; 0.1 μM): 101.3 ± 1.0 percentage of vehicle viability | Viability ([2]; 1 μM): 100.2 ± 1.1 percentage of vehicle viability | Viability ([2]; 10 μM): 100.6 ± 2.9 percentage of vehicle viability | differences in viability ([2]; 0.01-10 μM): No significant differences in viability
